Structures can show the parent of a compound that is named as a salt.

These results are taken from US5631263A, “Use of delta opioid receptor antagonists to treat immunoregulatory disorders” (Minneapolis Medical Research Foundation, priority 1995, dated 1997).

In assay [1] the target is kappa opioid receptors. Also on record: key to Ke, EK: No agonist antagonism observed. The settings on record: GPI, cited from earlier work; for Kb: agonist ethylketazocine, antagonist 100 or 200 nM, 15 min, read-out: Ke, EK.
Assay [2] has as its target mu opioid receptors. Also on record: key to Ke, M: No agonist antagonism observed. The settings on record: GPI, cited from earlier work; for Kb: read-out: Ke, M (morphine), agonist morphine, antagonist 100 or 200 nM, 15 min.
For assay [3], the target named is T1, delta opioid receptors (Mus musculus, UniProt P32300). Also on record: key: No agonist antagonism observed. The settings on record: MVD; compound 7 tested at 5 nM or less; cited from earlier work.
T1 sequence (P32300 whole entry): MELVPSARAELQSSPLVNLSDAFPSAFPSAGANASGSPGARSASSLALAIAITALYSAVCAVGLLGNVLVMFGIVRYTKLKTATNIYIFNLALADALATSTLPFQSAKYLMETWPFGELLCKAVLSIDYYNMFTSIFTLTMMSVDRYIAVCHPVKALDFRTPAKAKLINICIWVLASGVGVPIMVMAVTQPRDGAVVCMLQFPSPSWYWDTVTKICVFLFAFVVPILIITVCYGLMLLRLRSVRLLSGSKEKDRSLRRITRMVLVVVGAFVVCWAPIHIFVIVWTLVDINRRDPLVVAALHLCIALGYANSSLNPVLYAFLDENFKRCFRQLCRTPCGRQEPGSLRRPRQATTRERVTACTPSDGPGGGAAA
In assay [4] the test system is mouse vas deferens (MVD) and guinea pig ileum (GPI) preparations. The settings on record: cited from earlier work.
The target of assay [5] is T1, delta opioid receptors. In words: antagonism of DADLE in the mouse vas deferens (MVD) preparation. The settings on record: compared with 1 or its congeners.
Experimental: Mouse Vas Deferens (MVD). […] Both vasa deferentia were dissected out of mice and mounted singly through two platinum ring electrodes in a 10 ml organ bath. The bath contained Krebs bicarbonate solution that was continuously bubbled with 95% O2 and 5% CO2. The organ bath was maintained at 37° C. The tissue was attached to an isometric transducer and stimulated transmurally with rectangular pulses (0.1 Mz, 1 ms duration, supramaximal voltage). Drugs were added cumulatively to the bath in 10- to 50-μL amounts and washed out after noting their maximum effect.
The compounds were tested in vitro on the mouse vas deferens (MVD) and guinea pig ileum (GPI) preparations. […] The IC50 value was divided by the control IC50 value in the same tissue, and this IC50 ratio (DR) was employed to calculate the Ke value using the equation Ke=[antagonist]/(DR-1).
In assay [6] the target is T2, δ opioid receptor (Mus musculus, UniProt P32300).
T2 construct: Both vasa deferentia were dissected out of mice; from tissue; host or cells: mouse vas deferens (isolated, electrically stimulated)
T2 sequence (P32300 whole entry): as above
In words: antagonism of DADLE on MVD preparations (Example 7). As to conditions: for IC50 ratio (DADLE): MVD, 100 nM of each compound, NTI = 20 nM, 15 min. It is filed as cell-based. Here is the method:
2. Mouse Vas Deferens (MVD). […] The organ bath was maintained at 37° C.
Concentration-response curves were obtained in the absence (control) and the presence of the antagonist are expressed as IC50 values. […] Therefore, a high IC50 ratio represents a correspondingly high degree of antagonism at a particular receptor. […] Therefore, a low Ke represents a correspondingly high degree of binding at a particular receptor.

Assay [7] has as its system guinea pig ileum (GPI). As to conditions: standard result; cited from earlier work.
Assay [8] has as its target μ opioid receptor (Cavia porcellus, UniProt A0ACM8Q262). Nature of the assay: antagonism of morphine in the GPI (Example 7). The settings on record: morphine as agonist, read-out: Ke, μ (Table VII). The format is cell-based, guinea pig. The method, then:
1. Guinea Pig Ileal Longitudinal Muscle (GPI). Ilea from guinea pigs were taken approximately 10 cm from the ileocaecal junction, and a strip of longitudinal muscle with the myenteric plexus attached was prepared by method of Rang et al., Brit. J. Pharmacol., 22, 356 (1964), the disclosure of which is incorporated by reference herein. A 1 cm portion of this strip was then mounted between two platinum electrodes placed in a 10 ml organ bath and connected to an isometric transducer. Contractions were recorded on a polygraph. […] The organ bath was maintained at 36°-37° C. The longitudinal muscle strip was allowed to equilibrate with continuous stimulation for a minimum of 90 min.

The mark [9] stands for this setting: compound 7 tested at 5 nM or less.

Chain of μ opioid receptor (A0ACM8Q262 1-400): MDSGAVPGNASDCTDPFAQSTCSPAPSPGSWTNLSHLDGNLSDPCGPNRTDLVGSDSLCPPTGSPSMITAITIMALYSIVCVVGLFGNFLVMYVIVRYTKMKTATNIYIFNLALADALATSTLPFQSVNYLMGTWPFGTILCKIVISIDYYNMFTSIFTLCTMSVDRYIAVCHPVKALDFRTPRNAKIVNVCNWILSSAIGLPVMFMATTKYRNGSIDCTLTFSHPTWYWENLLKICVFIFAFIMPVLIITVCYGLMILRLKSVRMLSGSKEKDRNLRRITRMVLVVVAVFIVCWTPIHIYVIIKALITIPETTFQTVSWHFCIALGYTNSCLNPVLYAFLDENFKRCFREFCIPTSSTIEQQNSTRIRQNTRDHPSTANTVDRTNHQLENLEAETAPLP

Regarding `Cn1c2c(c3ccccc31)C[C@@]1(O)[C@H]3Cc4ccc(O)c5c4[C@@]1(CCN3CC1CC1)[C@H]2O5` [Compound 2], the Kb in assay [1] was 0.0222 µM; in assay [2] it was 0.0125 µM.
With `Oc1ccc2c3c1O[C@H]1c4[nH]c5ccc(F)cc5c4C[C@@]4(O)[C@@H](C2)N(CC2CC2)CC[C@]314` [Compound 3], the Kb was 0.0462 µM in assay [1] and 0.0617 µM in assay [2].
As to `COc1ccc2[nH]c3c(c2c1)C[C@@]1(O)[C@H]2Cc4ccc(O)c5c4[C@@]1(CCN2CC1CC1)[C@H]3O5` [Compound 4], the Kb in assay [1] is 0.0126 µM; in assay [2], 0.063 µM.
`Cc1ccc2[nH]c3c(c2c1)C[C@@]1(O)[C@H]2Cc4ccc(O)c5c4[C@@]1(CCN2CC1CC1)[C@H]3O5` [Compound 5]: the figures for the Kb in assay [1] and in assay [2] were over 0.25 µM and over 0.16 µM, respectively.
For the compound `O=[N+]([O-])c1ccc2[nH]c3c(c2c1)C[C@@]1(O)[C@H]2Cc4ccc(O)c5c4[C@@]1(CCN2CC1CC1)[C@H]3O5` [Compound 6], the Kb in assay [1] is at least 0.2 µM; in assay [2], 0.092 µM.
For the compound `CN1CC[C@]23c4c5ccc(O)c4O[C@H]2c2[nH]c4ccccc4c2C[C@@]3(O)[C@H]1C5` [Compound 7], in assay [3], the “Ke, DADLE” value is “e”. In assay [1] (setting [9]), the “Ke, EK” value was “e”. Moreover, the “antagonist activity of compound 7” value in assay [4] (at 5 nM) is “inactive”. For the same compound, in assay [4] (in words), the agonist activity entry is “partial agonist activity”. In assay [2] (setting [9]), the “Ke, M” value is given as “e”.
With `Oc1ccc2c3c1O[C@H]1c4oc5ccccc5c4C[C@@]4(O)[C@@H](C2)N(CC2CC2)CC[C@]314` [Compound 8, (17-cyclopropylmethyl)-6,7-dehydro-3,14β-dihydroxy-4,5α-epoxy-6,7-2',3'-benzo[b]furanomorphinan], the Kb in assay [1] was 0.0508 µM; in assay [2], 0.0308 µM. For the same compound, the “delta antagonist potency / selectivity in words” value in assay [5] is “less potent and less selective than 1 as a delta antagonist, nevertheless retains substantial delta antagonist activity”.
As to `Oc1ccc2[nH]c3c(c2c1)C[C@@]1(O)[C@H]2Cc4ccc(O)c5c4[C@@]1(CCN2CC1CC1)[C@H]3O5` [Compound 9], the Kb in assay [1] is 0.0685 µM; in assay [2], 0.0272 µM.
`Oc1ccc2c3c1O[C@H]1c4[nH]c5cccc(F)c5c4C[C@@]4(O)[C@@H](C2)N(CC2CC2)CC[C@]314` [Compound 10]: the Kb in assay [1] was over 0.17 µM; in assay [2], over 0.125 µM.
For the compound `Oc1ccc2c3c1O[C@H]1c4[nH]c5c(F)cccc5c4C[C@@]4(O)[C@@H](C2)N(CC2CC2)CC[C@]314` [Compound 11], the figures for the Kb in assay [1] and in assay [2] were over 0.33 µM and 0.0053 µM, respectively.
For `Cc1cccc2c3c([nH]c12)[C@@H]1Oc2c(O)ccc4c2[C@@]12CCN(CC1CC1)[C@H](C4)[C@]2(O)C3` [Compound 13], the Kb in assay [1] is over 0.33 µM; in assay [2], 0.0191 µM.
On to `COc1cccc2c3c([nH]c12)[C@@H]1Oc2c(O)ccc4c2[C@@]12CCN(CC1CC1)[C@H](C4)[C@]2(O)C3` [Compound 14], for which the Kb in assay [2] was 0.035 µM.
`Oc1ccc2c3c1O[C@H]1c4nc5ccccc5nc4C[C@@]4(O)[C@@H](C2)N(CC2CC2)CC[C@]314` [Compound 16]: the Kb was 0.0134 µM in assay [1] and 0.0061 µM in assay [2]. For the same compound, the “delta antagonist potency / selectivity in words” value in assay [5] is “A similar relationship was observed”.
For the compound `Oc1ccc2c3c1O[C@H]1c4nc5ccccc5cc4C[C@@]4(O)[C@@H](C2)N(CC2CC2)CC[C@]314` [Compound 17], the results for the Kb in assay [1] and in assay [2] were 0.0163 µM and 0.0113 µM, respectively. The “delta antagonist potency / selectivity in words” value in assay [5] is reported as “A similar relationship was observed”.
As for `O=C1/C(=C/c2ccc([N+](=O)[O-])cc2)C[C@@]2(O)[C@H]3Cc4ccc(O)c5c4[C@@]2(CCN3CC2CC2)[C@H]1O5` [IIa, E-7-(4-Nitrobenzylideno)naltrexone hydrochloride], in assay [6], the Kb amounted to 0.111 µM and the “IC50 ratio (DADLE)” value was 1.90.
The like results for `O=C1/C(=C/c2cccc([N+](=O)[O-])c2)C[C@@]2(O)[C@H]3Cc4ccc(O)c5c4[C@@]2(CCN3CC2CC2)[C@H]1O5` [IIb] were, in that order, 0.02 µM and 5.97.
The like results for `COc1ccc(/C=C2\C[C@@]3(O)[C@H]4Cc5ccc(O)c6c5[C@@]3(CCN4CC3CC3)[C@@H](O6)C2=O)cc1` [IIc] were, in that order, 0.022 µM and 5.52.
The like results for `COc1ccccc1/C=C1\C[C@@]2(O)[C@H]3Cc4ccc(O)c5c4[C@@]2(CCN3CC2CC2)[C@@H](O5)C1=O` [IIe] were, in that order, 0.00084 µM and 120.
`O=C1/C(=C/c2ccc(F)cc2)C[C@@]2(O)[C@H]3Cc4ccc(O)c5c4[C@@]2(CCN3CC2CC2)[C@H]1O5` [IIg]: in assay [6], the Kb was found to be 0.077 µM and the “IC50 ratio (DADLE)” value is reported as 2.29.
Turning to `O=C1/C(=C/c2cccc(F)c2)C[C@@]2(O)[C@H]3Cc4ccc(O)c5c4[C@@]2(CCN3CC2CC2)[C@H]1O5` [IIh], in assay [6], the Kb was determined as 0.014 µM and the “IC50 ratio (DADLE)” value was found to be 7.87.
For `O=C1/C(=C/c2ccccc2F)C[C@@]2(O)[C@H]3Cc4ccc(O)c5c4[C@@]2(CCN3CC2CC2)[C@H]1O5` [IIi] the same measures were 0.02 µM and 6.01.
Turning to `O=C1/C(=C/c2ccccc2Cl)C[C@@]2(O)[C@H]3Cc4ccc(O)c5c4[C@@]2(CCN3CC2CC2)[C@H]1O5` [IIj], in assay [6], the Kb was 0.00076 µM and the “IC50 ratio (DADLE)” value was 130.
For `O=C1/C(=C/c2cccc3ccccc23)C[C@@]2(O)[C@H]3Cc4ccc(O)c5c4[C@@]2(CCN3CC2CC2)[C@H]1O5` [IIl] the same measures were 0.0085 µM and 12.7.
On to `O=C1/C(=C/c2ccc3ccccc3c2)C[C@@]2(O)[C@H]3Cc4ccc(O)c5c4[C@@]2(CCN3CC2CC2)[C@H]1O5` [IIm], for which, in assay [6], the Kb is 0.0094 µM and the “IC50 ratio (DADLE)” value is on record as 11.6.
As for `O=C1CC[C@@]2(O)[C@H]3Cc4ccc(O)c5c4[C@@]2(CCN3CC2CC2)[C@H]1O5` [Naltrexone, naltrexone, reference compound], the “block of morphine's effects” value in assay [7] was “block morphine's effects”. In assay [8], the Kb amounted to 0.001 µM.
